From ChEMBL document CHEMBL6087408, “Discovery of peptidomimetic spiropyrrolidine derivatives as novel 3CLpro inhibitors against SARS-CoV -2” (Eur J Med Chem, 2025)

Key:
[1] = molecular target: Replicase polyprotein 1ab (Severe acute respiratory syndrome coronavirus 2, UniProt P0DTD1); assay: Inhibition of 6His-tagged SARS-CoV-2 3CLpro using Dabcyl-KNSTLQSGLRKE-Edans as substrate preincubated for 60 mins followed by substrate addition by FRET assay
[2] = Half life in ICR mouse at 10 mg/kg, iv measured for 24 hrs by LC-MS/MS analysis; type: ADME, organism-based; settings: in vivo
[3] = Oral bioavailability in ICR mouse at 20 mg/kg measured for 24 hrs by LC-MS/MS analysis; type: ADME, organism-based; settings: in vivo
[4] = AUC (0 to infinity) in ICR mouse at 20 mg/kg, po measured for 24 hrs by LC-MS/MS analysis; type: ADME, organism-based; settings: in vivo
[5] = Cmax in ICR mouse at 20 mg/kg, po measured for 24 hrs by LC-MS/MS analysis; type: ADME, organism-based; settings: in vivo
[6] = AUC (0 to t) in ICR mouse at 10 mg/kg, iv measured for 24 hrs by LC-MS/MS analysis; type: ADME, organism-based; settings: in vivo
SARS-CoV-2 = assay: Antiviral activity against SARS-CoV-2 infected in human Huh-7 cells transfected with viral replicon incubated for 1 day; type: functional, organism-based; settings: Severe acute respiratory syndrome coronavirus 2, Huh-7, 24 h; for EC90: time 1 day
[7] = AUC (0 to infinity) in ICR mouse at 10 mg/kg, iv measured for 24 hrs by LC-MS/MS analysis; type: ADME, organism-based; settings: in vivo
[8] = Metabolic stability in mouse liver microsomes assessed as half life at 1 uM preincubated for 5 mins followed by NADPH addition measured upto 45 mins by LC-MS/MS analysis; type: ADME, Microsome; settings: time < 50 min
[9] = Half life in ICR mouse at 20 mg/kg, po measured for 24 hrs by LC-MS/MS analysis; type: ADME, organism-based; settings: in vivo
[10] = AUC (0 to t) in ICR mouse at 20 mg/kg, po measured for 24 hrs by LC-MS/MS analysis; type: ADME, organism-based; settings: in vivo
Cathepsin B = Cathepsin B (Homo sapiens, UniProt P07858); assay: Inhibition of CTSB (unknown origin) incubated for 2 hrs
[11] = Metabolic stability in human liver microsomes assessed as hepatic clearance at 1 uM preincubated for 5 mins followed by NADPH addition measured upto 45 mins by LC-MS/MS analysis; type: ADME, Microsome; settings: time < 50 min
[12] = Metabolic stability in mouse liver microsomes assessed as hepatic clearance at 1 uM preincubated for 5 mins followed by NADPH addition measured upto 45 mins by LC-MS/MS analysis; type: ADME, Microsome; settings: time < 50 min
[13] = Metabolic stability in human liver microsomes assessed as half life at 1 uM preincubated for 5 mins followed by NADPH addition measured upto 45 mins by LC-MS/MS analysis; type: ADME, Microsome; settings: time < 50 min
[14] = Cytotoxicity against human Huh-7 cells assessed as cell viability by Cell Titer Glo assay; type: toxicity, cell-based
Procathepsin L = Procathepsin L (Homo sapiens, UniProt P07711); assay: Inhibition of CTSL (unknown origin) incubated for 2 hrs
Chain of Procathepsin L (P07711 whole entry): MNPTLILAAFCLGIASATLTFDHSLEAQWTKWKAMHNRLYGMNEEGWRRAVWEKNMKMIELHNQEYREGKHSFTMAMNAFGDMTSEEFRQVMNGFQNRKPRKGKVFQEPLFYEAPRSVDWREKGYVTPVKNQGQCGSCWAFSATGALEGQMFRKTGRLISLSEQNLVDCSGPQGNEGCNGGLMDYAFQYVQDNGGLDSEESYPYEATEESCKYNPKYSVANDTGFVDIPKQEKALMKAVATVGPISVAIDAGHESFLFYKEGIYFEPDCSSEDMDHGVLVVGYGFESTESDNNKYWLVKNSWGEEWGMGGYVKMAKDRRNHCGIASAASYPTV

Compound CN(C(=O)[C@@H](NC(=O)C(F)(F)F)C1CC1)[C@@H](CS(=O)(=O)Cc1ccccc1)C(=O)N1C[C@]2(C[C@H]1C#N)C(=O)Nc1ccccc12 has an IC50 [1] of 0.094 µM.
Compound CC(C)(F)C(=O)N[C@H](C(=O)N[C@@H](CSCc1ccccc1)C(=O)N1C[C@]2(C[C@H]1C#N)C(=O)Nc1ccccc12)C1CC1 has an IC50 [1] of 0.097 µM.
Compound CN(C(=O)[C@@H](NC(=O)C(F)(F)F)C1CC1)[C@@H](Cc1ccc(F)cc1)C(=O)N1C[C@]2(C[C@H]1C#N)C(=O)Nc1ccccc12 has an IC50 [1] of 0.021 µM, a half-life [2] of 1.99 h and a bioavailability [3] of 16.2%. It also gave an AUC(0-inf) [4] of 1.11 µg·h/mL, a Cmax [5] of 1.36 µg/mL and an AUC(0-t) at 24 h [6] of 3.42 µg·h/mL. For the same compound, the EC50 (SARS-CoV-2) was 0.005 µM, the EC90 (SARS-CoV-2) was 0.039 µM and the AUC(0-inf) [7] was 3.42 µg·h/mL. The half-life at 1 µM [8] was 1.25 h, the half-life [9] was 2.58 h and the AUC(0-t) at 24 h [10] was 1.11 µg·h/mL. The IC50 (Cathepsin B) was 20.7 µM, the CLhep predicted at 1 µM [11] was 1.1 L/h/kg and the CLhep predicted at 1 µM [12] was 2.45 L/h/kg. The half-life at 1 µM [13] was 0.207 h, the CC50 [14] was > 5 µM and the IC50 (Procathepsin L) was 20.2 µM.
With N#C[C@@H]1C[C@@]2(CN1C(=O)[C@@H](CSCc1ccc(F)cc1)NC(=O)[C@@H](NC(=O)C(F)(F)F)C1CC1)C(=O)Nc1ccccc12 the IC50 [1] was 0.025 µM, the half-life [2] was 0.47 h and the bioavailability [3] was 22.9%. The AUC(0-inf) [4] was 0.972 µg·h/mL, the Cmax [5] was 1.53 µg/mL and the AUC(0-t) at 24 h [6] was 2.12 µg·h/mL. It also gave an EC50 (SARS-CoV-2) of 0.031 µM, an EC90 (SARS-CoV-2) of 0.286 µM and an AUC(0-inf) [7] of 2.13 µg·h/mL. It also gave a half-life at 1 µM [8] of 1.5 h, a half-life [9] of 1.05 h and an AUC(0-t) at 24 h [10] of 0.97 µg·h/mL. The CLhep predicted at 1 µM [11] was 0.528 L/h/kg, the CLhep predicted at 1 µM [12] was 2.21 L/h/kg and the half-life at 1 µM [13] was 1.93 h. For the same compound, the CC50 [14] was > 5 µM.
Work on CC(C)(F)C(=O)N[C@H](C(=O)N[C@@H](COCc1ccccc1)C(=O)N1C[C@]2(C[C@H]1C#N)C(=O)Nc1ccccc12)C1CC1 yielded an IC50 [1] of 0.08 µM.
Compound CC(C)(C)[C@H](NC(=O)C(F)(F)F)C(=O)N1C[C@H]2[C@@H]([C@H]1C(=O)N[C@H](C#N)C[C@@H]1CCNC1=O)C2(C)C has an EC90 (SARS-CoV-2) of 0.186 µM, a half-life at 1 µM [8] of 1.17 h and a CLhep predicted at 1 µM [11] of 0.762 L/h/kg. For the same compound, the half-life at 1 µM [13] was 0.91 h and the CC50 [14] was > 5 µM.
With N#C[C@@H]1C[C@@]2(CN1C(=O)[C@H](CSCc1ccccc1)NC(=O)[C@@H](NC(=O)C(F)(F)F)C1CC1)C(=O)Nc1ccccc12 the IC50 [1] was 0.298 µM.
For CC(C)(C)OC(=O)N[C@H](C(=O)N[C@@H](CSCc1ccccc1)C(=O)N1C[C@]2(C[C@H]1C#N)C(=O)Nc1ccccc12)C1CC1, the IC50 [1] was 0.047 µM.
Compound CC(C)C[C@H](NC(=O)[C@H]1C[C@@H]1C(=O)O)C(=O)NCCCCNC(=N)N has an IC50 (Cathepsin B) of 0.0414 µM and an IC50 (Procathepsin L) of 0.0562 µM.
CN(C(=O)[C@@H](NC(=O)C(C)(C)F)C1CC1)[C@@H](COCc1ccccc1)C(=O)N1C[C@]2(C[C@H]1C#N)C(=O)Nc1ccccc12 showed an IC50 [1] of 0.053 µM, a half-life at 1 µM [8] of 0.0783 h and a CLhep predicted at 1 µM [12] of 5.02 L/h/kg.
With CC(C)(C)[C@H](NC(=O)C(F)(F)F)C(=O)N1C[C@H]2[C@@H]([C@H]1C(=O)N1C[C@]3(CC1C#N)C(=O)Nc1ccccc13)C2(C)C (stereo not given in full) the IC50 [1] was 0.248 µM.
Work on CN(C(=O)[C@@H](NC(=O)C(F)(F)F)C1CC1)[C@@H](CSCc1ccccc1)C(=O)N1C[C@]2(C[C@H]1C#N)C(=O)Nc1ccccc12 yielded an IC50 [1] of 0.04 µM, a half-life at 1 µM [8] of 0.0617 h and a CLhep predicted at 1 µM [12] of 5.09 L/h/kg.
CN(C(=O)[C@@H](NC(=O)C(C)(C)F)C1CC1)[C@@H](CSCc1ccccc1)C(=O)N1C[C@]2(C[C@H]1C#N)C(=O)Nc1ccccc12 gave an IC50 [1] of 0.043 µM, a half-life at 1 µM [8] of 0.06 h and a CLhep predicted at 1 µM [12] of 5.11 L/h/kg.
N#C[C@@H]1C[C@@]2(CN1C(=O)[C@H](CS(=O)(=O)Cc1ccccc1)NC(=O)[C@@H](NC(=O)C(F)(F)F)C1CC1)C(=O)Nc1ccccc12 gave an IC50 [1] of 1.3 µM.
Work on CN(C(=O)[C@@H](NC(=O)OC(C)(C)C)C1CC1)[C@@H](CSCc1ccccc1)C(=O)N1C[C@]2(C[C@H]1C#N)C(=O)Nc1ccccc12 yielded an IC50 [1] of 0.038 µM.
For CC1(C)[C@@H]2[C@@H](C(=O)N3C[C@]4(C[C@H]3C#N)C(=O)Nc3ccccc34)N(C(=O)[C@@H](NC(=O)C(F)(F)F)C3CC3)C[C@@H]21, the IC50 [1] was 0.886 µM.
Work on CN(C(=O)[C@@H](NC(=O)OC(C)(C)C)C1CC1)[C@H](CSCc1ccccc1)C(=O)N1C[C@]2(C[C@H]1C#N)C(=O)Nc1ccccc12 yielded an IC50 [1] of 0.674 µM.
